Assay results taken from patent US7238694B2, “Rifamycin imino derivatives effective against drug-resistant microbes” (Cumbre Pharmaceuticals, Inc., priority 2004, dated 2007).
Converted amounts (≈) assume the structure as drawn.

Key:
Assay type in all cases: cell-based
[1] = system: Staphylococcus aureus ATCC29213; experiment: MIC, microbroth dilution (NCCLS); conditions: rifS strain, Cation-Adjusted Mueller-Hinton Broth, 37° C., read-out: MIC
[2] = system: Staphylococcus aureus ATCC29213 rpoB^H418Y; experiment: microbe, parasite or virus in culture; conditions: Staphylococcus aureus, ATCC29213; rifR strain; Cation-Adjusted Mueller-Hinton Broth, 37° C.; read-out: MIC
[3] = system: Staphylococcus aureus MT1222 gyrA^A116E grlB^S80F; experiment: microbe, parasite or virus in culture; conditions: cipR strain, Cation-Adjusted Mueller-Hinton Broth, 37° C., read-out: MIC
[4] = system: Staphylococcus epidermidis ATCC12228; experiment: MIC, microbroth dilution (NCCLS); conditions: rifS strain, Cation-Adjusted Mueller-Hinton Broth, 37° C., read-out: MIC
[5] = system: Streptococcus pneumoniae ATCC6303; experiment: MIC, microbroth dilution (NCCLS); conditions: rifS strain, THY Broth with 1 mg/mL catalase, 5% CO2, 37° C., read-out: MIC
[6] = system: Streptococcus pyogenes ATCC19615; experiment: MIC, microbroth dilution (NCCLS); conditions: rifS strain, THY Broth, 37° C., read-out: MIC
[7] = system: Haemophilus influenzae ATCC10211; experiment: MIC, microbroth dilution (NCCLS); conditions: rifS strain, BHI Broth with NAD and hematin, 37° C., read-out: MIC

SMILES	MIC [1]	MIC [2]	MIC [3]	MIC [4]	MIC [5]	MIC [6]	MIC [7]
CO[C@H]1/C=C/O[C@@]2(C)Oc3c(C)c(O)c4c(O)c(c(/C=N/N5CCN(C6CCN(c7nc8c(cc7F)c(=O)c(C(=O)O)cn8-c7ccc(F)cc7F)C6)CC5)c(O)c4c3C2=O)NC(=O)/C(C)=C\C=C\[C@H](C)[C@H](O)[C@@H](C)[C@@H](O)[C@@H](C)[C@H](OC(C)=O)[C@@H]1C (mixture of isomers) [Example 34]	0.008 to 1 µg/mL (≈ 0.00669 to 0.836 µM)	0.06 to 16 µg/mL (≈ 0.0502 to 13.4 µM)	0.008 to 0.125 µg/mL (≈ 0.00669 to 0.104 µM)	0.008 to 0.1 µg/mL (≈ 0.00669 to 0.0836 µM)	0.008 to 0.06 µg/mL (≈ 0.00669 to 0.0502 µM)	0.008 to 0.03 µg/mL (≈ 0.00669 to 0.0251 µM)	0.125 to 4 µg/mL (≈ 0.104 to 3.34 µM)
CO[C@H]1/C=C/O[C@@]2(C)Oc3c(C)c(O)c4c(O)c(c(/C=N/N5CCN(C(=O)C6CCN(c7nc8c(cc7F)c(=O)c(C(=O)O)cn8-c7ccc(F)cc7F)C6)CC5)c(O)c4c3C2=O)NC(=O)/C(C)=C\C=C\[C@H](C)[C@H](O)[C@@H](C)[C@@H](O)[C@@H](C)[C@H](OC(C)=O)[C@@H]1C (mixture of isomers) [Example 36, (R/S)-3-{4-[1-(3-Carboxy-1-(2,4-difluoro-phenyl)-6-fluoro-4-oxo-1,4-dihydro-[1,8]naphthyridine-7-yl)-pyrrolidin-3-yl-carbonyl]-piperazin-1-yl-aminomethylenyl}-rifamycin SV]	0.008 to 1 µg/mL (≈ 0.00653 to 0.817 µM)	0.06 to 16 µg/mL (≈ 0.049 to 13.1 µM)	0.008 to 0.125 µg/mL (≈ 0.00653 to 0.102 µM)	0.008 to 0.1 µg/mL (≈ 0.00653 to 0.0817 µM)	0.008 to 0.06 µg/mL (≈ 0.00653 to 0.049 µM)	0.008 to 0.03 µg/mL (≈ 0.00653 to 0.0245 µM)	0.125 to 4 µg/mL (≈ 0.102 to 3.27 µM)
COc1c(N2CCC(C3(N4CCN(/N=C/c5c6c(O)c7c(O)c(C)c8c(c7c5O)C(=O)[C@@](C)(O/C=C/[C@H](OC)[C@@H](C)[C@@H](OC(C)=O)[C@H](C)[C@H](O)[C@H](C)[C@@H](O)[C@@H](C)/C=C/C=C(/C)C(=O)N6)O8)CC4)CC3)C2)c(F)cc2c(=O)c(C(=O)O)cn(C3CC3)c12 (mixture of isomers) [Example 37, (R/S)-3-{4-[1-(3-Carboxy-1-cyclopropyl-6-fluoro-8-methoxy-4-oxo-1,4-dihydroquinoline-7-yl)-pyrrolidin-3-yl-cyclopropyl]-piperazin-1-yl-aminomethylenyl}-rifamycin SV]	0.008 to 1 µg/mL (≈ 0.0067 to 0.838 µM)	0.06 to 16 µg/mL (≈ 0.0503 to 13.4 µM)	0.008 to 0.125 µg/mL (≈ 0.0067 to 0.105 µM)	0.008 to 0.1 µg/mL (≈ 0.0067 to 0.0838 µM)	0.008 to 0.06 µg/mL (≈ 0.0067 to 0.0503 µM)	0.008 to 0.03 µg/mL (≈ 0.0067 to 0.0251 µM)	0.125 to 4 µg/mL (≈ 0.105 to 3.35 µM)
CO[C@H]1/C=C/O[C@@]2(C)Oc3c(C)c(O)c4c(O)c(c(/C=N/NCC5CCN(c6c(F)cc7c(=O)c(C(=O)O)cn(C8CC8)c7c6Cl)C5)c(O)c4c3C2=O)NC(=O)/C(C)=C\C=C\[C@H](C)[C@H](O)[C@@H](C)[C@@H](O)[C@@H](C)[C@H](OC(C)=O)[C@@H]1C (mixture of isomers) [Example 39, (R/S)-3-[1-(3-Carboxy-8-chloro-1-cyclopropyl-6-fluoro-4-oxo-1,4-dihydroquinolin-7-yl)-pyrrolidin-3-yl-methyl-hydrazino-methylenyl]-rifamycin SV]	0.008 to 1 µg/mL (≈ 0.00726 to 0.907 µM)	0.06 to 16 µg/mL (≈ 0.0544 to 14.5 µM)	0.008 to 0.125 µg/mL (≈ 0.00726 to 0.113 µM)	0.008 to 0.1 µg/mL (≈ 0.00726 to 0.0907 µM)	0.008 to 0.06 µg/mL (≈ 0.00726 to 0.0544 µM)	0.008 to 0.03 µg/mL (≈ 0.00726 to 0.0272 µM)	0.125 to 4 µg/mL (≈ 0.113 to 3.63 µM)
CO[C@H]1/C=C/O[C@@]2(C)Oc3c(C)c(O)c4c(O)c(c(/C=N/N(C)C5CCN(c6nc7c(cc6F)c(=O)c(C(=O)O)cn7-c6ccc(F)cc6F)C5)c(O)c4c3C2=O)NC(=O)/C(C)=C\C=C\[C@H](C)[C@H](O)[C@@H](C)[C@@H](O)[C@@H](C)[C@H](OC(C)=O)[C@@H]1C (mixture of isomers) [Example 43, (R/S)-3-[1-[3-Carboxy-1-(2,4-difluoro-phenyl)-6-fluoro-4-oxo-1,4-dihydro-[1,8]naphthyridin-7-yl]-pyrrolidinyl-3-N′-methylhydrazinomethylenyl]rifamycin SV]	0.008 to 1 µg/mL (≈ 0.00701 to 0.876 µM)	0.06 to 16 µg/mL (≈ 0.0526 to 14 µM)	0.008 to 0.125 µg/mL (≈ 0.00701 to 0.11 µM)	0.008 to 0.1 µg/mL (≈ 0.00701 to 0.0876 µM)	0.008 to 0.06 µg/mL (≈ 0.00701 to 0.0526 µM)	0.008 to 0.03 µg/mL (≈ 0.00701 to 0.0263 µM)	0.125 to 4 µg/mL (≈ 0.11 to 3.51 µM)
CO[C@H]1/C=C/O[C@@]2(C)Oc3c(C)c(O)c4c(O)c(c(/C=N/N5CCN(c6c(F)cc7c(=O)c(C(=O)O)cn8c7c6OCC8C)CC5C)c(O)c4c3C2=O)NC(=O)/C(C)=C\C=C\[C@H](C)[C@H](O)[C@@H](C)[C@@H](O)[C@@H](C)[C@H](OC(C)=O)[C@@H]1C (mixture of isomers) [Example 44, (R/S)-3-[9-fluoro-3-methyl-10-(3-methyl-piperazin-1-hydrazinomethylenyl)-7-oxo-7H-pyrido[1,2,3-de]-1,4-benzoxazine-6-carboxylic acid]rifamycin SV]	0.008 to 1 µg/mL (≈ 0.00738 to 0.922 µM)	0.06 to 16 µg/mL (≈ 0.0553 to 14.8 µM)	0.008 to 0.125 µg/mL (≈ 0.00738 to 0.115 µM)	0.008 to 0.1 µg/mL (≈ 0.00738 to 0.0922 µM)	0.008 to 0.06 µg/mL (≈ 0.00738 to 0.0553 µM)	0.008 to 0.03 µg/mL (≈ 0.00738 to 0.0277 µM)	0.125 to 4 µg/mL (≈ 0.115 to 3.69 µM)
